What is called EC50 is the midpoint of the concentration-response curve. Higher therefore signals a less potent agent. What is called IC50 is the midpoint of a concentration-inhibition curve.

Consider 23 molecules from patent publication US11767316B2, “Non-fused thiophene derivatives and their uses” (ENYO PHARMA, priority 2018, dated 2023).

The test system of test [1] is NFκB. The experiment in a line: NFκB reporter assay (NanoLuciferase) in A549 cells, TNFα stimulation. The class given is cell-based. The settings on record: Homo sapiens, 4 ng/ml TNFα, 6 hours. The text has this: Compounds of the present invention have been tested for their capacity to inhibit NFκB.
The NFκB reporter construct was made by cloning 5 NFκB responsive elements upstream of a NanoLuciferase reporter gene flanked by AAVS1 genomic sequences.
NFκB Responsive element fused with NanoLuciferase and SV40 late Poly(A) signal was amplified from pNL3.2-NFκB-Nluc (Promega) using NFKB-NLUC-F and NFKB-NLUC-R primers and inserted by Infusion (TaKaRa) in AAVS1 SA-2A-puro-pA donor plasmid (Hockemeyer et al, Nat Biotechnol. 2009, 27, 851-7) digested by Sal1. pCRISPR AAVS1-T2 expressing a guide RNA (gRNA) to target human AAVS1 (T2 target sequence) was constructed by inserting AAVS1-T2A hybridized primers in pLentiCRISPR v2-blast (Sanjana et al, Nat Methods. 2014, 11, 783-4) digested by Bsmb1.
A549 cells were transfected by the plasmids and puromycine selected for 5 days (1 μg mL-1). Then clones were obtained by limiting dilution and selected to maximize TNFα dependent NFkB-NanoLuciferase induction.
The reporter cells were seeded on a 96-well plate for overnight with DMEM including 10% FBS. Test compounds were added at varying concentrations. The cells then were treated with 4 ng/ml TNFα (Peprotech, ref E251) in DMEM+10% FBS. NanoGlo luciferase assay (Promega) was carried out 6 hours later. Luminescence was measured using a Spark 20M spectrofluorimeter (Tecan). Values were normalized to the luminescence measured in untreated cells.
(In a reporter assay the amount or activity of a reporter protein is the signal.)

For test [2], the system named is H1N1 (influenza A/New Caledonia/20/99). The experiment in a line: Antiviral effect on A549 cells infected with H1N1 (MUNANA neuraminidase readout). The class given is cell-based. As to conditions: H1N1 A/New Caledonia/20/99 at MOI 0.1, 48 h post-infection, MUNANA fluorescence. The method, then:
The antiviral effect of the compounds of the invention have been tested on A549 cell lines infected with H1N1 (influenza A/New Caledonia/20/99).
Human A549 cells (80,000 cells/well in a 96 well plate) were treated with a range of concentration of test compounds and immediately infected by H1N1 A/New Caledonia/20/99 virus (clinical isolate) at MOI of 0.1 in DMEM/1% Penicillin/streptomycin supplemented with 0.25 μg/ml TPCK trypsin (Sigma) and incubated at 37° C. in 5% CO2. 48 h post-infection, supernatants (25 μl) were collected and transferred into a 96-well black flat-bottom plate, mixed with 25 μl PBS with Ca++/Mg++(Thermo Fisher) and 50 μl of 2′-(4-Methylumbelliferyl)-α-D-N-acetylneuraminic acid sodium salt hydrate stock-solution (20 μM, MUNANA, Sigma). Plates were incubated 1 h at 37° C. and reaction is stopped by adding 100 μl of Stop Solution (glycine 0.1 M pH10.7/25% ethanol). The amount of fluorescent product released by MUNANA hydrolysis (4-MU) was measured in a Tecan spectrophotometer with excitation and emission wavelengths of 365 and 450 nm respectively.

Where [3] appears, read: Influenza A virus, H1N1, A549, 48 h, read-out: IC50.
Where [4] appears, read: Influenza A virus, H1N1, A549, 48 h.

Like-named read-outs stand apart in the source and are kept apart here.

Molecule `O=C(Nc1sc(Cl)c(C2CCc3ccccc3C2)c1C(=O)O)c1ccccc1` (stereo not shown) [#17] yielded an EC50 in test [1] of 180 nM. In addition, in test [2] (setting [3]), the IC50 came to 38.3 nM.
For `O=C(Nc1scc(C2CCc3ccccc32)c1C(=O)O)c1ccccc1` (stereo not shown) [#19] the same measures were 200 nM and 67 nM.
For `COCCCNc1ccc(C(=O)Nc2scc(C3CCc4ccccc43)c2C(=O)O)cc1` (stereo not shown) [#57], in that order: 80 nM and 76 nM.
For `CN1CCOc2cc(C(=O)Nc3scc(C4CCc5ccccc5C4)c3C(=O)O)ccc21` (stereo not shown) [#86], in that order: 40 nM and 2 nM.
For `COCCNc1cccc(C(=O)Nc2scc(C3CCc4ccccc4C3)c2C(=O)O)c1` (stereo not shown) [#94], the EC50 in test [1] amounted to 90 nM. The IC50 in test [2] (setting [3]) turned out to be 2 nM.
For `O=C(Nc1scc(C2CCCc3ccccc32)c1C(=O)O)c1ccccc1` (stereo not shown) [#124] the same measures were 910 nM and 237 nM.
Consider `O=C(Nc1scc(C2CCc3ccccc3C2)c1C(=O)O)c1ccc(N2C[C@@H]3C[C@H]2CO3)cc1` (stereo partly shown) [#140], for which the EC50 in test [1] turned out to be 40 nM. Moreover, the IC50 in test [2] (setting [3]) turned out to be 3.5 nM.
Consider `O=C(Nc1scc(C2CCc3ccccc3C2)c1C(=O)O)c1ccc(F)cc1` (stereo not shown) [#151], for which the EC50 in test [1] amounted to 90 nM. Moreover, the IC50 in test [2] (read-out: IC50) worked out at 2 nM.
With `O=C(Nc1scc(C2CCc3ccccc3C2)c1C(=O)O)c1ccc(OC(F)F)cc1` (stereo not shown) [#152], in test [1], a half-maximal response (EC50) required 160 nM. Moreover, in test [2] (read-out: IC50), the IC50 was 2 nM.
In test [1], `COc1ccc(C(=O)Nc2scc(C3CCc4ccccc4C3)c2C(=O)O)cc1F` (stereo not shown) [#162] had an EC50 of 200 nM. In addition, the IC50 in test [2] (setting [3]) came to 4 nM.
In turn, `CC(C)Oc1ccc(C(=O)Nc2scc(C3CCc4ccccc4C3)c2C(=O)O)cc1` (stereo not shown) [#180] registered an EC50 in test [1] of 50 nM. Also, in test [2] (setting [3]), the IC50 amounted to 0.3 nM.
`O=C(Nc1scc(C2CCc3ccccc3C2)c1C(=O)O)c1ccc(OC2CCOCC2)cc1` (stereo not shown) [#182] returned an IC50 in test [2] (setting [4]) of 3 nM.
On the same count and under the same terms, the same measure for `O=C(Nc1scc(C2CCc3ccccc3C2)c1C(=O)O)c1ccc(N2CCCS2(=O)=O)cc1` (stereo not shown) [#184]: 32 nM.
In the case of `O=C(Nc1scc(C2=Cc3ccccc3CC2)c1C(=O)O)c1ccccc1` [#185], in test [2] (setting [3]), the IC50 was 260 nM.
On the same count and under the same terms, then `O=C(Nc1scc(C2CCc3ccccc3C2)c1C(=O)O)c1ccccn1` (stereo not shown) [#186], with 134 nM.
As to `COc1ccc(C(=O)Nc2scc(C3CCc4ccccc4C3)c2C(=O)O)nc1` (stereo not shown) [#187], the IC50 in test [2] (setting [3]) was 15 nM.
The same measure, in the same setting: the same measure for `CC(C)(C)Oc1ccc(C(=O)Nc2scc(C3CCc4ccccc4C3)c2C(=O)O)cc1` (stereo not shown) [#188]: 15 nM; for `O=C(Nc1scc(C2CCc3ccc(F)cc3C2)c1C(=O)O)c1ccccc1` (stereo not shown) [#189]: 178 nM.
On the same count and under the same terms, the same measure for `O=C(Nc1scc(C2CCc3c(F)cccc3C2)c1C(=O)O)c1ccccc1` (stereo not shown) [#190]: 8 nM; for `O=C(Nc1scc(C2CCc3cc(F)ccc3C2)c1C(=O)O)c1ccccc1` (stereo not shown) [#191]: 46 nM; for `O=C(O)c1c(C2CCc3ccccc3C2)csc1NC(=O)C12CC(C1)C2` (stereo not shown) [#192]: 347 nM.
Still for that read-out and setting: the same measure for `O=C(O)c1c(C2CCc3ccccc3C2)csc1NC(=O)C12CC(F)(C1)C2` (stereo not shown) [#193]: 315 nM.
The molecule `N#Cc1ccc(C(=O)Nc2scc(C3CCc4ccccc4C3)c2C(=O)O)cc1` (stereo not shown) [Compound #183, 2-[(4-Cyanobenzoyl)amino]-4-tetralin-2-yl-thiophene-3-carboxylic acid] gave an IC50 in test [2] (setting [4]) of 462 nM.
